# In PMC7944240 (Anesthesiology, 2020):
# Tests used:
# α1β3γ2L GABAA receptors [1] = molecular target: T1, α1β3γ2L GABAA receptors (Homo sapiens, UniProt P14867+P18507+P28472); assay type: cell-based; details: for IC50: IC50 for antagonizing direct activation by 20 μM etomidate in the presence of flumazenil, [Benzodiazepine]:[Flumazenil] = 1:2
# zebrafish larvae = assay: Zebrafish larvae photomotor response; assay type: in vivo, Danio rerio; details: for EC50: Danio rerio, read-out: EC50 for abolishing zebrafish larvae motor responses to a light stimulus
# GABAA receptor = details: cited from earlier work
# α1β3γ2L GABAA receptors [2] = molecular target: T1, α1β3γ2L GABAA receptors; assay type: cell-based
# α1β3γ2L GABAA receptors [3] = molecular target: T1, α1β3γ2L GABAA receptors; assay type: cell-based; remark: listed apart in the source
# [4] = molecular target: purified α1β3γ2L GABAA receptors (Homo sapiens, UniProt P14867+P18507+P28472); assay: Inhibition of R-[3H]azietomidate photoaffinity labeling of purified receptors; details: at up to 300 μM
# purified GABAA receptors = details: cited from earlier work
# T1 sequence (P14867 28-456): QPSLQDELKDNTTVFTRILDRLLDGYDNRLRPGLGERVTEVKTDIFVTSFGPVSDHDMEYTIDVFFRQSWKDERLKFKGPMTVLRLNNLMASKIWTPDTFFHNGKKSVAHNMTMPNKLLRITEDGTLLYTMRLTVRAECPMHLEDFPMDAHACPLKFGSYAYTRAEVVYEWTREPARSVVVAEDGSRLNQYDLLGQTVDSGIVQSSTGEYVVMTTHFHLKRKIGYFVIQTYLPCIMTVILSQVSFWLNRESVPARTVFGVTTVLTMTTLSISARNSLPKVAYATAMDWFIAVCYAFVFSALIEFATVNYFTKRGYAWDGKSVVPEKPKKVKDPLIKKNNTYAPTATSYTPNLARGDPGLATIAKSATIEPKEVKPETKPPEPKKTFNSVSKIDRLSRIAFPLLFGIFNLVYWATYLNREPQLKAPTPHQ
# T1 sequence (P28472 26-473): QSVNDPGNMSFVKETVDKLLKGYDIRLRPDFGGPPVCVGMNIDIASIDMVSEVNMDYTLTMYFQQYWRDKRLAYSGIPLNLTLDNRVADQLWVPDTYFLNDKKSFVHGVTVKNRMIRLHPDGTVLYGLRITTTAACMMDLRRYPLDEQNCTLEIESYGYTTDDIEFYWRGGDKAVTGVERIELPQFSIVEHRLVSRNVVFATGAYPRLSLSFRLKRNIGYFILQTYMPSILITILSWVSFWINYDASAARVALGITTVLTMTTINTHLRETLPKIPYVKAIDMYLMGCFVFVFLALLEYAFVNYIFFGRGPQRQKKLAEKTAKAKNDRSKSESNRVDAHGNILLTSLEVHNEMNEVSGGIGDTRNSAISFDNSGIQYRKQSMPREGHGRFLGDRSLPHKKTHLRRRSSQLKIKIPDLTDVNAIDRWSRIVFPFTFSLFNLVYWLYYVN
# T1 sequence (P18507 40-475): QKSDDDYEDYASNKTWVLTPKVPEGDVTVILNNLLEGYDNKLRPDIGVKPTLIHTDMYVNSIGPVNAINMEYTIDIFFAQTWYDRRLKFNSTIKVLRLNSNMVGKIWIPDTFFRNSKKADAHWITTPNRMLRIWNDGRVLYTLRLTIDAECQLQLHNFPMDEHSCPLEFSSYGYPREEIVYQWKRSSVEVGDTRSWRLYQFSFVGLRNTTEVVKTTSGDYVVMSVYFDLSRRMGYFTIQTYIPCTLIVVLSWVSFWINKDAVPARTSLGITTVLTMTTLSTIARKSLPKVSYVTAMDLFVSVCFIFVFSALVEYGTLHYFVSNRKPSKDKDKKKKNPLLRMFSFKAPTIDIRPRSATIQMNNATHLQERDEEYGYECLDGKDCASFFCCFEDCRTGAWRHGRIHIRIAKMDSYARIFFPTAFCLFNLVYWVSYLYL
# purified α1β3γ2L GABAA receptors, sequence (P14867 28-456): as the sequence (P14867 28-456) above
# purified α1β3γ2L GABAA receptors, sequence (P28472 26-473): as the sequence (P28472 26-473) above
# purified α1β3γ2L GABAA receptors, sequence (P18507 40-475): as the sequence (P18507 40-475) above
smiles,measurement,setting,value
O=C1Nc2ccc(Cl)cc2C(c2ccccc2Cl)=NC1O (stereo not drawn) [Lorazepam],IC50,α1β3γ2L GABAA receptors [1],≥ 1000 µM
Cc1ncc2n1-c1ccc(Cl)cc1C(c1ccccc1F)=NC2 [Midazolam],IC50,α1β3γ2L GABAA receptors [1],560 µM
O=C1CN=C(c2ccccc2)c2cc([N+](=O)[O-])ccc2N1 [Nitrazepam],IC50,α1β3γ2L GABAA receptors [1],130 µM
CCOC(=O)c1cncn1[C@H](C)c1ccccc1 [etomidate],EC50,zebrafish larvae,0.66 µM
same,potentiation of currents activated by low concentrations of GABA,GABAA receptor; high concentrations,more than an order of magnitude
same,Hill slope of etomidate concentration-response curve,α1β3γ2L GABAA receptors [2]; Schild analysis,2.1
O=C1CN=C(c2ccccc2)c2cc(Cl)ccc2N1 [Nordiazepam],IC50,α1β3γ2L GABAA receptors [1],32 µM
CNC1(c2ccccc2Cl)CCCCC1=O (stereo not drawn) [ketamine],EC50,zebrafish larvae,170 µM
same,fold leftward shift of anesthetic concentration-response curve,zebrafish larvae; by 50 μM diazepam plus 200 μM flumazenil,19 fold
Clc1ccc2c(c1)C(c1ccccc1)=NCc1nncn1-2 [Estazolam],IC50,α1β3γ2L GABAA receptors [1],59 µM
CCOC(=O)c1ncn2c1CN(C)C(=O)c1cc(F)ccc1-2 [Flumazenil],impact on GABA-activated currents in the absence of diazepam,α1β3γ2L GABAA receptors [3]; data not shown,no impact
same,effect on R-[3H]azietomidate photo-incorporation,[4],little inhibitory effect
same,impact on etomidate-activated currents in the absence of diazepam,α1β3γ2L GABAA receptors [1]; data not shown,no impact
CN1CCN=C(c2ccccc2)c2cc(Cl)ccc21 [Medazepam],IC50,α1β3γ2L GABAA receptors [1],≥ 1000 µM
CN1C(=O)CN=C(c2ccccc2F)c2cc([N+](=O)[O-])ccc21 [flunitrazepam],reduction in apparent affinity with purified GABAA receptors,purified GABAA receptors,sevenfold
CN1C(=O)CN=C(c2ccccc2)c2cc(Cl)ccc21 [Diazepam],effect on zebrafish larvae motor responses to light stimulus,"zebrafish larvae; 50 μM, alone, no flumazenil",essentially abolishes
same,potentiation of currents activated by low concentrations of GABA via the etomidate binding site,GABAA receptor,no more than two- to threefold
same,reduction of GABA-activated peak current amplitudes at micromolar concentrations,α1β3γ2L GABAA receptors [3]; 6 μM GABA,did not see a similar reduction
same,Schild slope,"α1β3γ2L GABAA receptors [2]; against etomidate direct activation, flumazenil present (1:4)",1.1
CN1C(=O)CN=C(c2ccccc2F)c2cc(Cl)ccc21 [Fludiazepam],IC50,α1β3γ2L GABAA receptors [1],390 µM
same,"etomidate inhibitory potency, fold lower than diazepam",α1β3γ2L GABAA receptors [1]; relative to diazepam,30 ×
